Results from patent US20170173106A1, “Polypeptide Fragments of 168A-T2 and Compositions Comprising Them for Use in Treating Cancer” (GENE SIGNAL INTERNATIONAL SA, priority 2014, published 2017).
Like-named read-outs stand apart in the source and are kept apart here. Ends that are not written are not given here.

Key:
endostatin = experiment: Endostatin production by HUVECs (ELISA); type: cell-based, human; settings: inhibitor of MMPs GM6001 alone; FIG. 16
Method: HUVECs were transfected with siRNA using transfecting agent GENJET according to the manufacturer's instructions. After 48 hrs of incubation, supernatants were collected, protein expression tested by western blots and endostatin quantified.
Endostatin levels were quantified by ELISAs on lysates of HUVECs incubated at rising concentrations of P3 or PCT for 48 hrs.
In order to evaluate the role of metalloproteinases (MMPs) in endostatin production, a polyvalent inhibitor of MMPs, GM6001 was used. The concentration of endostatin in supernatants is at 6.2 ng/mg of protein of the lysates/48 hrs. […] GM6001 inhibits endostatin production induced by P3. MMPs might then be implicated in endostatin production induced by P3.
HUVECs were incubated for 48 hrs in an EGM2-MV media with an anti-CD151 antibody (11G5a) or an irrelevant antibody (negative control unable to recognize any protein). Then endostatin levels were measured by ELISA in supernatants.
HUVECs cells were transfected with specific siRNA of CD151 and CD9. Protein expression was analyzed in western blots. In parallel, endostatin levels were measured by ELISA in supernatants. […] Levels of endostatin in supernatant of HUVECs cells transfected with siRNA were measured. […] On the contrary, levels of endostatin increased at 9.4 ng/mg of protein lysates/48 hrs in HUVECs depleted in CD151 (FIG. 18B). CD151 is thus involved in the production of endostatin.

UMUC-3 cells = experiment: Tumor growth test in vivo, UMUC-3 xenograft (no CD9P-1 expression); parameters: species or system mice; settings: cisplatin 2.5 mg/kg i.p.; 13 days
Method: Tumor sizes were measured and tumor volume was calculated. Mice were weighted to detect symptoms of pain.
The effect of P3 was then tested on the tumor growth in an in vivo model of xenograft of UMUC-3.

Calu-6 cells = experiment: Tumor volume in vivo, Calu-6 xenograft; parameters: species or system mice; settings: CDDP alone 5 mg/kg i.p. every other day for 16 days
Method: All experiments were reviewed by Genopole's institutional animal care and use committee, and performed in accordance with institutional guidelines for animal care. Female BALB/c nu/nu mice (n=24) were used at 5-6 weeks of age. The animals were housed in laminar air-flow cabinets under pathogen-free conditions with a 14 hrs light/10 hrs dark schedule, and fed autoclaved standard chow and water ad libitum. Calu-6 cells (5×10^6 cells in 200 μl of serum-free RPMI) were subcutaneously injected into the right flank of mice. After engraftment (10 days), tumor volume (TV) was measured (Balsari et al, Eur J Cancer. 2004 May; 40(8):1275-81) and animals were randomized and separated into four groups of six animals each, to be treated by i.p. injection (200 μl per injection) every other day for 16 days (eight injections). Control mice (group 1) received the vehicle (0.9% saline). […] Pegylated peptide 4 (P4-PEG) was dissolved in vehicle at 1 mg/ml and injected at a dose of 10 mg/kg (group 3). In group 4, mice received both CDDP and P4-PEG. Tumor volume and body weight were measured every other day over the treatment period (16 days).

NCI-H460 cells = settings: 13 days; for average tumoral volume: Example 6, n=5
Method: (§3) Swiss nu/nu female mice aged 5-6 weeks were anesthetized with xylazine (12 mg/kg) and ketamine (80 mg/kg). Tumor cells (NCI-H460 or UMUC-3) were implanted sub-cutanously in the mice flanks. […] Tumor sizes were measured and tumor volume was calculated. Mice were weighted to detect symptoms of pain.
Evaluating the effect of the peptides on tumor growth in vivo was performed. Cancer cells NCI-H460 were injected by sub-cutaneous administration in the Swiss-nu/nu mice flanks (n=20). 10 days following inoculation of tumor cells, mice were randomized in 2 groups of 5 mice. Mice of different groups were treated as follow: mice of group 1 were treated with solvent (200 μL/injection/48 hrs); mice of group 2 were treated with P3 (200 μL of 1 mg/mL of P3 in the solvent/injection/48 hrs). All the treatments were performed by intraperitoneal injection for 13 successive days.
The inoculation of NCI-H460 cells (tumoral volume of 100 to 150 mm^3), mice (n=35) were randomized in 7 groups comprising 5 mice each. […] All the treatments were performed by intraperitoneal injection for 13 successive days.

HUVECs [1] = experiment: Cellular proliferation test (MTT) on HUVECs; type: cell-based, human; settings: 48 h
Method: Evaluation of cellular proliferation was performed using 4,5-diMethylThiazol-2-yl)-2,5 diphenylTetrazolium bromide (MTT) test. After 18 hrs of culture, the media was changed by EBM2 supplemented with gentamycine and 5% SVF. Different concentrations of peptides were added under a volume of 10 μL/well. Cells were incubated for 48 hrs at 37° C. MTT was added (50 μL/well) to the cells for 3 hrs.
Cells were grown for 48 h in EGM2-MV and proliferation was quantified by MTT assay.

CD151 [2] = biological target: T1, CD151 (Homo sapiens, UniProt P48509); experiment: CD151 in lysates of NCI-H460 xenografts (Western blot); type: in vivo, mice; settings: 10 mg/kg every other day for 13 days
T1 construct: from tissue; host or cells: homogenates of Matrigel implants with NCI-H460 cells, and NCI-H460 xenografts, from Swiss nu/nu mice
T1 sequence (P48509 1-253): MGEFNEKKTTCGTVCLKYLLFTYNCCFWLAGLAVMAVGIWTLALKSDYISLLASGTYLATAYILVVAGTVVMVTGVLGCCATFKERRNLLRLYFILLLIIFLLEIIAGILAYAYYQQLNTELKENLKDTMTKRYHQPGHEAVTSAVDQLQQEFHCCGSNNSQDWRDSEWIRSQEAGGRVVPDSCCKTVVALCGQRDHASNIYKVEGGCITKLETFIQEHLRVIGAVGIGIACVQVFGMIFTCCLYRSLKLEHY
Method: (§1) In lysates from xenografts NCI-H460 cells from mice treated for 13 days every other day by P3 or P4 (10 mg/kg), a decrease of CD151 level is observed respectively of 73% and 50% compared to mice treated with the solvent (FIGS. 12A and B). No change in CD9P-1 was observed (FIG. 12A).

[3] = mouse, in vivo
Method: as §3
In parallel, to investigate the toxic effect of peptides tested on mice, the mice weights were measured along the treatment.

HUVECs [4] = experiment: Capillaries formation by HUVECs on Matrigel; type: cell-based, human; settings: 6.5 μM, 13 μM and 33 μM, 18 h
Method: Evaluating the formation of capillaries on Matrigel® was performed by angiogenesis test in vitro described in Grant et al (1989 Cell 58, 933-943). Matrigel® was dropped down the wells of the 96 well plates and maintained for 30 min at 37° C. for the Matrigel® solidification. HUVECs cells were then seeded and 50 μL, of peptide added.
Plates were then incubated for 18 hrs at 37° C. cells were then washed with calcein solution (50 μL/well at 8 μM) and incubated for 20 min. HUVECs alive metabolize calcein in a green fluorescent component.
Peptides were added to the culture medium (EGM2-MV) at concentrations 6.5 μM, 13 μM and 33 μM after inoculation of cells. Plates were incubated at 37° C. for 18 h. Fluorescence labeling was achieved by addition of calcein. Pictures were shot with a fluorescence microscope equipped with a camera (zoom ×40).

[5] = test system: Matrigel® implants enriched in NCI-H460 cells; experiment: Angiogenesis test in vivo (Matrigel implants, hemoglobin); parameters: species or system mice; settings: 10 mg/kg intraperitoneal daily for 12 days; for color of implants: implants collected day 13
Method: Implants of Matrigel® represent an in vivo model of angiogenesis. NCI-H460 cells are used to provide growth factors necessary for blood vessels formation within the Matrigel® matrix. The mixture was then injected sub-cutanously in the Swiis nu/nu mice. Daily treatments with the peptides (1 mg/mL) were performed by injections intraperitoneally. Implants were collected after 12 days.
The dosage of hemoglobin in implants was used as an indicator of the vessels of the implant. The implants were weighted and crushed.
An in vivo model of angiogenesis as described in Passaniti et al. (1992 Experimental gerontology 27, 559-566) was utilized to evaluate the effect of P3 and P4. Briefly, cancer cells were incorporated into Matrigel®, cancer cells provide growth and angiogenic factors necessary for blood vessel formation. The mixture was injected immediately under a sub-cutaneous form of the mice flanks. The day following the inoculation, 20 mice (Swiss nu-nu) were randomized in 4 groups containing 5 mice each and the treatments started as follows: mice of group 1 were treated by 200 μL/injection/day of solvent alone for 12 successive days; mice of group 2 were treated by 200 μL/injection of a P1 solution (1 mg/mL) in a solvent/injection/day for 12 successive days; mice of group 3 were treated by 200 μL of a P3 solution (1 mg/mL) in a solvent/injection/day for 12 successive days; mice of group 4 were treated by 200 μL of a P4 solution (1 mg/mL) in a solvent/injection/day for 12 successive days.

CD151 [6] = experiment: CD151 in homogenates of Matrigel implants enriched with NCI-H460 (Western blot); type: in vivo, mice; settings: 10 mg/kg for 12 days
Method: (§2) Analysis of the expression of CD151 and CD9P-1 were performed on western blots on homogenates of implants of Matrigel® enriched with NCI-H460. CD151 profile is characterized by 2 bands on western blots; one at 28 kDa corresponds to CD151 and another one at 26 kDa corresponding to a degraded product of CD151.

CD9P-1 [7] = experiment: CD9P-1 in homogenates of Matrigel implants enriched with NCI-H460 (Western blot); type: in vivo, mice; settings: 10 mg/kg for 12 days
Method: as §2

CD9P-1 [8] = biological target: T2, CD9P-1 (Homo sapiens, UniProt Q9P2B2); experiment: CD9P-1 in lysates of NCI-H460 xenografts (Western blot); type: in vivo, mice; settings: 10 mg/kg every other day for 13 days
T2 construct: from tissue; host or cells: homogenates of Matrigel implants with NCI-H460 cells, and NCI-H460 xenografts, from Swiss nu/nu mice
T2 sequence (Q9P2B2 26-879): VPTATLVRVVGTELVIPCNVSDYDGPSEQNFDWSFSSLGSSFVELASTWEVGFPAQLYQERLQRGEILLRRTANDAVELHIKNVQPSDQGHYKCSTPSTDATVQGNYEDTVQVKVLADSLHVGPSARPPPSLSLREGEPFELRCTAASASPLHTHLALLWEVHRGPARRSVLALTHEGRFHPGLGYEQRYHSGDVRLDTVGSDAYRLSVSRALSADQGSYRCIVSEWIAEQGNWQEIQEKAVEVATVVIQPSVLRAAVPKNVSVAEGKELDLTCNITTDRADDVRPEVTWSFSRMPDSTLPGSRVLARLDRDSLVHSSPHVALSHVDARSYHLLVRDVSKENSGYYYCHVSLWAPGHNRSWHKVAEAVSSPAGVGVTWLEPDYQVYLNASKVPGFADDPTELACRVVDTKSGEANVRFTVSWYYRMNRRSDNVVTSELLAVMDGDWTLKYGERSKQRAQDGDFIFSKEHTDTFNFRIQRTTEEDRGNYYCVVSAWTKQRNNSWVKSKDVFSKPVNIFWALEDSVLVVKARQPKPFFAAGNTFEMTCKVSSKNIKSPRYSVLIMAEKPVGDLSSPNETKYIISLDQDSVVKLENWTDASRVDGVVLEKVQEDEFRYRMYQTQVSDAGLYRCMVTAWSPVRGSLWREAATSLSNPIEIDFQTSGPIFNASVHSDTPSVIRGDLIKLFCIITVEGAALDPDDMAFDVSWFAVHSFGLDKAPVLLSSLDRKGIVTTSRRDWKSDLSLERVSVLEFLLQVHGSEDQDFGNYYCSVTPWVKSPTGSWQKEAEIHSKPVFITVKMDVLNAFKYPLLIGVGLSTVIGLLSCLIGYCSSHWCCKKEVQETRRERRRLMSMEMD
Method: as §1

endothelial cells = settings: results disclosed in WO 2008/138894; cited from earlier work

CNC(=O)[C@H](Cc1c[nH]c2ccccc12)NC(=O)[C@@H](CC(=O)NO)CC(C)C [GM6001]
concentration of endostatin in supernatants (endostatin): 4.4 ng/mg of protein of the lysates/48 hrs | decrease of endostatin compared to the control (endostatin): about 30%

N.N.[Cl][Pt][Cl] [cisplatin, Cis-diammine platinum II dichloride]
tumors under treatment (UMUC-3 cells): reduced | tumor volume (Calu-6 cells): significant decrease in tumor volume | average tumoral volume (NCI-H460 cells; cisplatin 2.5 mg/kg i.p.): 1017±119.8 mm^3 | average tumoral volume (NCI-H460 cells; cisplatin alone 5 mg/kg i.p.): 626±118.5 mm^3

GNYYCSVTPWVKS [P3]
inhibition of HUVECs proliferation (HUVECs [1]; 66 μM, n=3): 50%±1.2% | decrease of CD151 level compared to mice treated with the solvent (CD151 [2]): 73% | inhibition of the tumor growth in vivo (NCI-H460 cells; Example 5, P3 200 μL of 1 mg/mL /injection/48 hrs i.p.): 64.79±4.37% | Weight difference between day 1 and day 13 [3]: 10.2 ± 9% | Weighted average of mice after 13 days of the treatment [3]: 24.6 ± 0.4 | Weight difference between day 1 and day 13 ([3]; 10 mg/kg): 6 ± 2% | Weighted average of mice after 13 days of the treatment ([3]; 10 mg/kg): 26.2 ± 2.9

IHSKPVFITVKMDVLNA [P4]
capillary tubes formation (capillaries length and junctions number) (HUVECs [4]): significant decrease of both capillaries length and junctions number | inhibition of hemoglobin amount in implants compared to group 1 (solvent) [5]: 29.2±8.4% | color of implants [5]: yellow color with some red points | decrease of the band corresponding to CD151 (28 kDa, normalized to GAPDH, vs solvent) (CD151 [6]): 51% | CD9P-1 level (CD9P-1 [7]): does not change | change in CD9P-1 (CD9P-1 [8]): No change

VSWFAVHSFGLDKAPVLLSS (Peptide 1) [P1]
effect on HUVECs proliferation (HUVECs [1]): No effect | color of implants [5]: red color

B1: 168A-T2: fragment of the extracellular domain of protein 168A (CD9P-1) (protein)
chain: MAFDVSWFAVHSFGLDKAPVLLSSLDRKGIVTTSRRDWKSDLSLERVSVLEFLLQVHGSEDQDFGNYYCSVTPWVKSPTGSWQKEAEIHSKPVFITVKMDVLNAFKYP
modifications: peptide 168A-T2
potency relative to the anti-VEGF mAb and/or VEGF receptor (KDR)-based identified peptides (endothelial cells): at least 600 fold
